Assay [1] has as its target Histone deacetylase 1 (Homo sapiens) (UniProt Q13547). As to conditions: HEK293; 50 uM.
Assay [2] deals with Histone deacetylase 2 (Homo sapiens) (UniProt Q92769). As to conditions: HEK293; 50 uM.
For assay [3], the target named is Histone deacetylase 3 (Homo sapiens) (UniProt O15379). As to conditions: HEK293; 50 uM.
Assay [4] concerns the target Histone deacetylase 4 (Homo sapiens) (UniProt P56524). As to conditions: 50 uM.
For assay [5] the target is unchanged. As to conditions: 100 uM.
For assay [6], the target named is Histone deacetylase (Homo sapiens) (UniProt Q13547+O15379+Q9UBN7+Q92769+Q9UQL6+Q8WUI4+Q9BY41+Q96DB2+P56524+Q9UKV0+Q969S8). As to conditions: HeLa, 100 uM.
Assay [7] addresses Histone deacetylase 2 (Homo sapiens) (UniProt Q92769). To be noted: HEK293; 100 uM.
In assay [8] the target is Histone deacetylase 3 (Homo sapiens) (UniProt O15379). To be noted: HEK293; 100 uM.
In assay [9] the target is T1, Histone deacetylase 7 (Homo sapiens) (UniProt Q8WUI4).
T1 sequence (whole entry): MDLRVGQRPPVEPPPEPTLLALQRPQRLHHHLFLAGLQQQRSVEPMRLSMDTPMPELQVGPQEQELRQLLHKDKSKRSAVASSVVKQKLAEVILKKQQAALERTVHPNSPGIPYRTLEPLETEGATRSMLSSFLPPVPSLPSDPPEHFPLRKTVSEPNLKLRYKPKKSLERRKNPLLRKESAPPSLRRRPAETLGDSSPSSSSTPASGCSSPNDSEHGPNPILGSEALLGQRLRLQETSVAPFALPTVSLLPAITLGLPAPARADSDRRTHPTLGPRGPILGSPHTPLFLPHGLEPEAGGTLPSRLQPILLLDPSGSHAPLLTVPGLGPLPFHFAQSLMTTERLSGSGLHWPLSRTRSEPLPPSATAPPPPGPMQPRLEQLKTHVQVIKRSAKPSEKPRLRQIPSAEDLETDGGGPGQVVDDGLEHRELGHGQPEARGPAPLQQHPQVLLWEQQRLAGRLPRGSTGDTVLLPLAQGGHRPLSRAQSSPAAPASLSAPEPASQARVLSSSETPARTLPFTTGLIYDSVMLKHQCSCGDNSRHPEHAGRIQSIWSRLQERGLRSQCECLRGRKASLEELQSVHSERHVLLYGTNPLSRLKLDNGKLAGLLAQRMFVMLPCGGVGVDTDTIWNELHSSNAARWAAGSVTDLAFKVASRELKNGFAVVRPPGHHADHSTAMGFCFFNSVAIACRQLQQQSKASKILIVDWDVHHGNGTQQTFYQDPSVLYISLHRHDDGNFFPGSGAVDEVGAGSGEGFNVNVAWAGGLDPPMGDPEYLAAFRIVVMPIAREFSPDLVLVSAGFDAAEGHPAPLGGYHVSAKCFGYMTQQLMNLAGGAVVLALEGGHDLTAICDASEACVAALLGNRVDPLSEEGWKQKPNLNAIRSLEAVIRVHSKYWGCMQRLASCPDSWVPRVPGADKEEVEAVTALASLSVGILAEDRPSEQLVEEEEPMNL
To be noted: 100 uM.

Broadly, the inhibition is the share of the control response that was lost under treatment. A lower inhibition goes with a weak effect.

Sequence of Histone deacetylase 4 (Homo sapiens) (P56524 whole entry): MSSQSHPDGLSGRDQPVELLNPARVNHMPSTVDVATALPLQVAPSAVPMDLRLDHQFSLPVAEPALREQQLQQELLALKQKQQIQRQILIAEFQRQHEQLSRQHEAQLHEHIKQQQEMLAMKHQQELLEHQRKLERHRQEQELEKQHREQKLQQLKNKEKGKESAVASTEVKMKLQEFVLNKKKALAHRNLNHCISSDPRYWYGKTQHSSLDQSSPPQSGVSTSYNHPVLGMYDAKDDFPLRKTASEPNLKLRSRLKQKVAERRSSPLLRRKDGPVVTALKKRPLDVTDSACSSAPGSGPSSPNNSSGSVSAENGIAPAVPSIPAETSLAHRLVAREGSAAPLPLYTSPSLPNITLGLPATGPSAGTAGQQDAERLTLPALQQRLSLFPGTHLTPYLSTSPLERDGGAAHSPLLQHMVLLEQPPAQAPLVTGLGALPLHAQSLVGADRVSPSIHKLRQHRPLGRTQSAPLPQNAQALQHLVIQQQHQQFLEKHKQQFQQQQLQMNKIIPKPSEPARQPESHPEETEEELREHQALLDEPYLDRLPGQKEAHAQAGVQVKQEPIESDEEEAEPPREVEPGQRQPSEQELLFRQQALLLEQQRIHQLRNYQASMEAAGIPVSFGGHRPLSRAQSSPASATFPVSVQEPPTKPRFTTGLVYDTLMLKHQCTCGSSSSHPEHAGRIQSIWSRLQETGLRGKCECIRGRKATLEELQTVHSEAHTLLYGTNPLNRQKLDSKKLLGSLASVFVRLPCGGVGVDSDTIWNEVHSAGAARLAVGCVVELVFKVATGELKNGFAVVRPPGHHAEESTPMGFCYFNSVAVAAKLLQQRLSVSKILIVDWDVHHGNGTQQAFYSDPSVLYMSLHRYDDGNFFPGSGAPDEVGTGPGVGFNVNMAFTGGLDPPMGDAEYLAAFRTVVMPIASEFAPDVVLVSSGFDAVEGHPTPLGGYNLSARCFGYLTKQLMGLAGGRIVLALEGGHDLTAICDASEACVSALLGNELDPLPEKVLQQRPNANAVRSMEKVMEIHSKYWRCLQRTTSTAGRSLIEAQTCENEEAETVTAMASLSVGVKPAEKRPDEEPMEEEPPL
Sequence of Histone deacetylase 3 (Homo sapiens) (O15379 whole entry): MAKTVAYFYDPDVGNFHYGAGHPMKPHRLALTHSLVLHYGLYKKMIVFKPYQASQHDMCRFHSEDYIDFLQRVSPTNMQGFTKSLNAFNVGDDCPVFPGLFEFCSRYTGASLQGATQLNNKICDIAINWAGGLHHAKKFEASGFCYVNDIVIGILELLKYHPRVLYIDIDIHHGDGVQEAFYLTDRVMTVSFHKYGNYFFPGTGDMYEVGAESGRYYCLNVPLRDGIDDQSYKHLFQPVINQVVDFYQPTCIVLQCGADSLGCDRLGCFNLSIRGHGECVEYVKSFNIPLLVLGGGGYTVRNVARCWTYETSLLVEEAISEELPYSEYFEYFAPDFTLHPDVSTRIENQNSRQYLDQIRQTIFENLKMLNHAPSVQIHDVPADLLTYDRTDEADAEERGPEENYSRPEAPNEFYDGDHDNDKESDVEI
Sequence of Histone deacetylase 2 (Homo sapiens) (Q92769 whole entry): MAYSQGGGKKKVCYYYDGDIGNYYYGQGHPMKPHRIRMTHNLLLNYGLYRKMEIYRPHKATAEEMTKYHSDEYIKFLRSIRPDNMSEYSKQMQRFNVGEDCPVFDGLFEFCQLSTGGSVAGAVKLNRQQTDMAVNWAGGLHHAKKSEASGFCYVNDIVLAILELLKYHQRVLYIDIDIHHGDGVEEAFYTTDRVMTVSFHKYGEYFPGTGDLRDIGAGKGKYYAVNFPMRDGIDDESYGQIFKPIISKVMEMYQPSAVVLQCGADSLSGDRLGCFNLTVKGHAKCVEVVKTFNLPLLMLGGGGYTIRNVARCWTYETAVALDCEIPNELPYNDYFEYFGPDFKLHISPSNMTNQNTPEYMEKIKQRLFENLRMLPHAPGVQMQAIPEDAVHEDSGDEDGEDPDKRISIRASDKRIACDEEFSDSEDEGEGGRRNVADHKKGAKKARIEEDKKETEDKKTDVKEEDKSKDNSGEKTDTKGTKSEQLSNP
Sequence of Histone deacetylase 1 (Homo sapiens) (Q13547 whole entry): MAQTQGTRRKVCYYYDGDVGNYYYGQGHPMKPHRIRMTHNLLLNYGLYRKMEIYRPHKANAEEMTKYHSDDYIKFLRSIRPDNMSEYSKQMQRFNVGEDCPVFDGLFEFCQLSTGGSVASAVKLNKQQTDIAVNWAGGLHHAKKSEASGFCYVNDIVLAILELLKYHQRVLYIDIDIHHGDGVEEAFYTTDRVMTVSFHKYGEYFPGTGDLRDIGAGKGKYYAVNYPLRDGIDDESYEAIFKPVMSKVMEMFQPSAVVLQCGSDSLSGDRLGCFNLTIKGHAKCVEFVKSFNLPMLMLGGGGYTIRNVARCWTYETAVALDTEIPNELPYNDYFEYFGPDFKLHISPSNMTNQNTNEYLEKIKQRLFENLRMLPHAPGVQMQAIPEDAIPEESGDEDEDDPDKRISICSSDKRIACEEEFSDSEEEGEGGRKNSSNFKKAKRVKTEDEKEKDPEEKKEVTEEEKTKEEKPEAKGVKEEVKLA

As for `O=C(CCCCC[C@@H]1NC(=O)[C@H]2CCCN2C(=O)[C@H](Cc2ccccc2)NC(=O)[C@H](Cc2c[nH]c3ccccc23)NC1=O)NO`, the results for the inhibition in assay [1], in assay [2] and in assay [3] were 42%, 30% and 14.7%, respectively.

`O=C(O)CC/C=C\C[C@@H]1NC(=O)[C@H]2CCCN2C(=O)[C@H](Cc2ccccc2)NC(=O)[C@H](Cc2c[nH]c3ccccc23)NC1=O`: in [4], the inhibition came out at 37%. In turn, `C[C@H](O)C(=O)CCCCC[C@@H]1NC(=O)[C@H]2CCCN2C(=O)[C@H](Cc2ccccc2)NC(=O)[C@H](Cc2c[nH]c3ccccc23)NC1=O` had an inhibition in assay [5] of 50%. Consider `O=C(O)CC/C=C\C[C@@H]1NC(=O)[C@H](Cc2c[nH]c3ccccc23)NC(=O)[C@H]2CCCN2C(=O)[C@H](Cc2c[nH]c3ccccc23)NC1=O`, for which the inhibition in [6] turned out to be 30%. As to `O=C(CCCCC[C@@H]1NC(=O)[C@H](Cc2c[nH]c3ccccc23)NC(=O)[C@H]2CCCN2C(=O)[C@H](Cc2c[nH]c3ccccc23)NC1=O)NO`, the inhibition in assay [7] worked out at 34%; in assay [8], 23.5%; in assay [9] it was 48.5%.

The values are drawn from ChEMBL document CHEMBL1158553, “Synthesis and biological activity of cyclotetrapeptide analogues of the natural HDAC inhibitor FR235222” (Bioorg Med Chem, 2010).
